Measured values as given in BigSolDB 2.1.

COC1=C(OC)C(=O)C(C/C=C(\C)CC/C=C(\C)CC/C=C(\C)CC/C=C(\C)CC/C=C(\C)CC/C=C(\C)CC/C=C(\C)CC/C=C(\C)CC/C=C(\C)CCC=C(C)C)=C(C)C1=O
solubility (mole fraction)
Conditions	in ethanol	in ethyl acetate	in isopropanol	in n-butanol	in n-hexane	in n-propanol
270.15 K	1e-05	0.0006	7e-06	1e-05	0.0009	–
280.15 K	1.1e-05	0.0033	8e-06	1.7e-05	0.0044	0.0002
290.15 K	1.6e-05	0.0178	6.2e-05	0.0001	0.0207	0.0005
300.15 K	6.1e-05	0.09	0.0005	0.0011	0.0931	0.0014
310.15 K	0.0002	0.431	0.0029	0.0107	0.399	0.0039
320.15 K	0.0014	0.647	0.0165	0.0934	0.55	0.011
